These results are taken from ChEMBL document CHEMBL5212743, “Selectivity Literature for EUbOPEN Chemogenomics Library wave 3” (2023).

The target of test [1] is T1, Serine/threonine-protein kinase LATS1 (Homo sapiens) (UniProt O95835).
T1 sequence (whole entry): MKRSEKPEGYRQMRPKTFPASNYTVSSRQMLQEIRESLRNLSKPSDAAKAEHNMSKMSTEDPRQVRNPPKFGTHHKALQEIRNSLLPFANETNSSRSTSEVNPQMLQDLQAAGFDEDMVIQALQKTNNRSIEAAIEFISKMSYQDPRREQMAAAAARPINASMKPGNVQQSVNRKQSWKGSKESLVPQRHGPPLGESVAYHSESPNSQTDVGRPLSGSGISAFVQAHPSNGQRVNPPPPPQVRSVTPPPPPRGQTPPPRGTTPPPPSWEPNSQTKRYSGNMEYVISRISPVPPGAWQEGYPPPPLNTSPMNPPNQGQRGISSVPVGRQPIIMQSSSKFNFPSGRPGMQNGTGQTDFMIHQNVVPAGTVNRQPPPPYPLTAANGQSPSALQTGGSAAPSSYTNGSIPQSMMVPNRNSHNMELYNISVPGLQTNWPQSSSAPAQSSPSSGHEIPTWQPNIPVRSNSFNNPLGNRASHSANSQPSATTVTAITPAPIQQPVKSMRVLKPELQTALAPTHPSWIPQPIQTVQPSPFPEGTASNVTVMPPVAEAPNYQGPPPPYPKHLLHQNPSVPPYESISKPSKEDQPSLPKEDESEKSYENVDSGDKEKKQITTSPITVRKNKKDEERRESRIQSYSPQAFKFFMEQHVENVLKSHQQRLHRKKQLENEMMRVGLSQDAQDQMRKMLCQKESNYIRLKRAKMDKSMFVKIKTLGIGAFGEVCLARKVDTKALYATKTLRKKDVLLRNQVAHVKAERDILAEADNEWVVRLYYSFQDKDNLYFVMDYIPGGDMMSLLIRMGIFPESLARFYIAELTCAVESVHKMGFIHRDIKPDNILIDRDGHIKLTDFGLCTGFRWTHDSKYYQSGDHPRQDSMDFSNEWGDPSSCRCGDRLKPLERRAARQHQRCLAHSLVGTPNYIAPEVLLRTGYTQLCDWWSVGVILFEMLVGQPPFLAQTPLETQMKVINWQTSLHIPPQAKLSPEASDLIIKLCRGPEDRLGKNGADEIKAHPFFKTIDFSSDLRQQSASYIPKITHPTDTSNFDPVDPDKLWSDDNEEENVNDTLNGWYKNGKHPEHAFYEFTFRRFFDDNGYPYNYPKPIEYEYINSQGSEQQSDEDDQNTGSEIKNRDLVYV
Description: Selectivity interaction (ScanMAX (DiscoverX)) EUB0000285b LATS1. The following applies: at 1 µM.

Test [2] deals with T2, Serine/threonine-protein kinase 32C (Homo sapiens, UniProt Q86UX6). Description: Selectivity interaction (ScanMAX (DiscoverX)) EUB0000285b STK32C. The following applies: at 1 µM.
T2 sequence (Q86UX6 whole entry): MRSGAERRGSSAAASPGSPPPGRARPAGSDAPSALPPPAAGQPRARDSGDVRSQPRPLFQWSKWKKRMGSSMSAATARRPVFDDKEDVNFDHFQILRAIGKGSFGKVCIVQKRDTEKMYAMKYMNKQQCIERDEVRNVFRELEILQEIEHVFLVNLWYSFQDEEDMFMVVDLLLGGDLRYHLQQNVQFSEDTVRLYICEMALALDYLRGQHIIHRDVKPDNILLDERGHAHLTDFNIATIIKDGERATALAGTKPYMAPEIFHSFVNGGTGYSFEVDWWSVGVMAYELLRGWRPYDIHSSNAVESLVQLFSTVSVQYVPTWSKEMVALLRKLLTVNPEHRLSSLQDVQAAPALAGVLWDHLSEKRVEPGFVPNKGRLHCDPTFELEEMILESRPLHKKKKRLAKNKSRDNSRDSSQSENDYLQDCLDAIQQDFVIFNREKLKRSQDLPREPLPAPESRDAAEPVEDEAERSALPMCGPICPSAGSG
Test [3] addresses T3, Serine/threonine-protein kinase PAK 3 (Homo sapiens, UniProt O75914). Description: Selectivity interaction (ScanMAX (DiscoverX, competition-binding assay)) EUB0000285b PAK3.
Test [4] deals with Testis-specific serine/threonine-protein kinase 1 (Homo sapiens) (UniProt Q9BXA7). Briefly: Selectivity interaction (ScanMAX (DiscoverX)) EUB0000285b TSSK1B. Conditions: at 1 µM.
The target in test [5] is T4, Leukocyte tyrosine kinase receptor (Homo sapiens, UniProt P29376). Description: Selectivity interaction (ScanMAX (DiscoverX)) EUB0000285b LTK. The following applies: at 1 µM.
T4 sequence (P29376 whole entry): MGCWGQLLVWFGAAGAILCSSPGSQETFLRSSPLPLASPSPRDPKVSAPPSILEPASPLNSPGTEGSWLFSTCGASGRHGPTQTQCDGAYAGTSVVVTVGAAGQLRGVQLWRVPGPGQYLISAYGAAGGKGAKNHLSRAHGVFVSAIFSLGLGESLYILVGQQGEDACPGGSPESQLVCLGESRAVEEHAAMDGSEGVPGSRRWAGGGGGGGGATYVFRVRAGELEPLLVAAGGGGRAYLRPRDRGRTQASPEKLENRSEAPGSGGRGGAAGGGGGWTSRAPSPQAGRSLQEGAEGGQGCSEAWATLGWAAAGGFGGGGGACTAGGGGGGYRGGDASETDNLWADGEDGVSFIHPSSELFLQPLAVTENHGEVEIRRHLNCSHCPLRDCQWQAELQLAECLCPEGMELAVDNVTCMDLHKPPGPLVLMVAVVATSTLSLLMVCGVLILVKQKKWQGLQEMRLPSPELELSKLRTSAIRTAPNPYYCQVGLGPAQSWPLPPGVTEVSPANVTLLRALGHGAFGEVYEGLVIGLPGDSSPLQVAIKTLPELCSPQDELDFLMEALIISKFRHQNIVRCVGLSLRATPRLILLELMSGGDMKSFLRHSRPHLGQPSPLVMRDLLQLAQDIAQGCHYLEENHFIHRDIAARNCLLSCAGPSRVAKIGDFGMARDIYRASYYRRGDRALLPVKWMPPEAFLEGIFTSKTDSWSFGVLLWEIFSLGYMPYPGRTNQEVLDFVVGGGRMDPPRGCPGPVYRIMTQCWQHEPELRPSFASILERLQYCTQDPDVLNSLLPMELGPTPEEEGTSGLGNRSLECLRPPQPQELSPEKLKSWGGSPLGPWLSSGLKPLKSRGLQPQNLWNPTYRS
For test [6], the target named is Serine/threonine-protein kinase 4 (Homo sapiens, UniProt Q13043). Briefly: Selectivity interaction (ScanMAX (DiscoverX, competition-binding assay)) EUB0000285b STK4.
In test [7] the target is Serine/threonine-protein kinase 4 (Homo sapiens) (UniProt Q13043). Description: Selectivity interaction (ScanMAX (DiscoverX)) EUB0000285b STK4. The following applies: at 1 µM.
Test [8] concerns the target Testis-specific serine/threonine-protein kinase 1 (Homo sapiens, UniProt Q9BXA7). Briefly: Selectivity interaction (ScanMAX (DiscoverX, competition-binding assay)) EUB0000285b TSSK1B.
Test [9] addresses T3, Serine/threonine-protein kinase PAK 3. Description: Selectivity interaction (ScanMAX (DiscoverX)) EUB0000285b PAK3. Conditions: at 1 µM.
For test [10], the target named is Serine/threonine-protein kinase LATS1 (Homo sapiens, UniProt O95835). Briefly: Selectivity interaction (ScanMAX (DiscoverX, competition-binding assay)) EUB0000285b LATS1.
The target of test [11] is T4, Leukocyte tyrosine kinase receptor. Briefly: Selectivity interaction (ScanMAX (DiscoverX, competition-binding assay)) EUB0000285b LTK.
The target in test [12] is T2, Serine/threonine-protein kinase 32C. Briefly: Selectivity interaction (ScanMAX (DiscoverX, competition-binding assay)) EUB0000285b STK32C.
The target of test [13] is Histone-lysine N-methyltransferase 2A (Homo sapiens, UniProt Q03164). Briefly: Selectivity interaction (HMT panel) EUB0000194b MLL.
In test [14] the target is Histone-arginine methyltransferase CARM1 (Homo sapiens, UniProt Q86X55). Description: Selectivity interaction (HMT panel) EUB0000194b CARM1.
The target in test [15] is Protein arginine N-methyltransferase 3 (Homo sapiens, UniProt O60678). Briefly: Selectivity interaction (HMT panel) EUB0000194b PRMT3.
Test [16] addresses Protein arginine N-methyltransferase 5 (Homo sapiens, UniProt O14744). Description: Selectivity interaction (HMT panel) EUB0000194b PRMT5.
Test [17] deals with T5, N-lysine methyltransferase KMT5A (Homo sapiens, UniProt Q9NQR1).
T5 sequence (Q9NQR1 whole entry): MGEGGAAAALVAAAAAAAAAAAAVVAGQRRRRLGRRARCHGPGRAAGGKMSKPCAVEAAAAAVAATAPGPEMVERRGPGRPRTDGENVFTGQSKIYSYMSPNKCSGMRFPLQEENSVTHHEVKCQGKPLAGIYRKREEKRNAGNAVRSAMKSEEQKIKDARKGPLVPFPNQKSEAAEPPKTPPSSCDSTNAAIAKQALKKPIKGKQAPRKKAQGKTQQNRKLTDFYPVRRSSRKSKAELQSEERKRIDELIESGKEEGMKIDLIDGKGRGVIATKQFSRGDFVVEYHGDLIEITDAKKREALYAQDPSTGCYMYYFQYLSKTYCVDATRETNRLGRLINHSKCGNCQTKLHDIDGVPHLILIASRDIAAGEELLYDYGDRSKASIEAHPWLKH
Description: Selectivity interaction (HMT panel) EUB0000194b SETD8.

For test [18], the target named is Histone-lysine N-methyltransferase SETDB1 (Homo sapiens, UniProt Q15047). Description: Selectivity interaction (HMT panel) EUB0000194b SETDB1.
The target of test [19] is Histone-lysine N-methyltransferase SUV39H2 (Homo sapiens, UniProt Q9H5I1). Briefly: Selectivity interaction (HMT panel) EUB0000194b SUV39H2.
For test [20], the target named is Protein arginine N-methyltransferase 1 (Homo sapiens, UniProt Q99873). Description: Selectivity interaction (HMT panel) EUB0000194b PRMT1.
The target in test [21] is Histone-lysine N-methyltransferase KMT5B (Homo sapiens, UniProt Q4FZB7). Description: Selectivity interaction (HMT panel) EUB0000194b SUV420H1.
Test [22] concerns the target Protein arginine N-methyltransferase 8 (Homo sapiens, UniProt Q9NR22). Description: Selectivity interaction (HMT panel) EUB0000194b PRMT8.
Test [23] deals with T6, Alpha-2C adrenergic receptor (Homo sapiens, UniProt P18825).
T6 sequence (P18825 whole entry): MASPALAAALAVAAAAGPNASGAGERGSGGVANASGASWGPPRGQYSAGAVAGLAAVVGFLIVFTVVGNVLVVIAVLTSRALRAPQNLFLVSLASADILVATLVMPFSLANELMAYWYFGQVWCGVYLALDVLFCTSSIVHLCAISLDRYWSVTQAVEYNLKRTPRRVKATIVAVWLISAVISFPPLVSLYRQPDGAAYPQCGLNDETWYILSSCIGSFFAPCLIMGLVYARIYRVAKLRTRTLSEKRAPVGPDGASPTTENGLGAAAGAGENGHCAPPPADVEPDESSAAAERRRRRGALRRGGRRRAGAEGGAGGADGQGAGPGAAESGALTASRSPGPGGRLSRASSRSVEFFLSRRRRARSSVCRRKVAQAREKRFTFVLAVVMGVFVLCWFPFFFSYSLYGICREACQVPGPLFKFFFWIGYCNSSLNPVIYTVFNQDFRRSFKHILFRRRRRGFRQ
Briefly: Selectivity interaction (Enzyme panel (GPCRS, ion channels, and transporters)) EUB0000194b ADRA2C.

For test [24], the target named is Histone-lysine N-methyltransferase EZH2 (Homo sapiens, UniProt Q15910). Description: Selectivity interaction (HMT panel) EUB0000194b EZH2.
For test [25], the target named is Histone-lysine N-methyltransferase KMT5C (Homo sapiens, UniProt Q86Y97). Briefly: Selectivity interaction (HMT panel) EUB0000194b SUV420H2.
Test [26] has as its target T7, Histone-lysine N-methyltransferase SETD7 (Homo sapiens, UniProt Q8WTS6).
T7 sequence (Q8WTS6 whole entry): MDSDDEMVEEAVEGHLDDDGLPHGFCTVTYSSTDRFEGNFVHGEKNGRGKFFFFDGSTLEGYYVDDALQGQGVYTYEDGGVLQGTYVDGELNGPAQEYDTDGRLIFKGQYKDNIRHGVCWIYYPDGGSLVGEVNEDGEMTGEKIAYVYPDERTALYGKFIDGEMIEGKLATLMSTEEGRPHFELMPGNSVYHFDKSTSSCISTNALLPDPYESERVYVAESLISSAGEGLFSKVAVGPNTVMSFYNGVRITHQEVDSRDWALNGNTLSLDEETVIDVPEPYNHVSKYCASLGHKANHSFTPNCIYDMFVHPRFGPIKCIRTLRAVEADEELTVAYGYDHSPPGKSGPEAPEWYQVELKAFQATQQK
Briefly: Selectivity interaction (HMT panel) EUB0000194b SETD7.

Test [27] addresses T8, Phosphatidylinositol 4,5-bisphosphate 3-kinase catalytic subunit alpha isoform (Homo sapiens, UniProt P42336). Description: Selectivity interaction (KinomeScan (DiscoverX)) EUB0000312b PIK3CA. The following applies: at 1 µM.
Test [28] addresses Mitogen-activated protein kinase 9 (Homo sapiens, UniProt P45984). Description: Selectivity interaction (KinomeScan (DiscoverX)) EUB0000312b MAPK9. The following applies: at 1 µM.
Test [29] deals with T9, Calcium/calmodulin-dependent protein kinase type 1B (Homo sapiens, UniProt Q6P2M8). Description: Selectivity interaction (NanoBRET assay (HEK293T cells)) EUB0000312b PNCK.
T9 sequence (Q6P2M8 whole entry, the tested form may be a part): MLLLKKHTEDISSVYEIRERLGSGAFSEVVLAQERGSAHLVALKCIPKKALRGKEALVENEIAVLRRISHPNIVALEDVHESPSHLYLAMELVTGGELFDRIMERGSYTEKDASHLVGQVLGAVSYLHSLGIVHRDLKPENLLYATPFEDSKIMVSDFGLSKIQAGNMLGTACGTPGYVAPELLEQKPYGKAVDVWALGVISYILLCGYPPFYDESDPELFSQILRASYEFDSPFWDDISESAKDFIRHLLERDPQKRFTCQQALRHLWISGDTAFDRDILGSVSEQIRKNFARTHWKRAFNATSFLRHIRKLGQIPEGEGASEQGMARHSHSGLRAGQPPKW
Test [30] concerns the target T10, Epithelial discoidin domain-containing receptor 1 (Homo sapiens, UniProt Q08345). Briefly: Selectivity interaction (KinomeScan (DiscoverX)) EUB0000312b DDR1. The following applies: at 1 µM.
The target in test [31] is T11, Tyrosine-protein kinase JAK1 (Homo sapiens, UniProt P23458). Briefly: Selectivity interaction (NanoBRET assay (HEK293T cells)) EUB0000312b JAK1@kinase 1. Background: Bioluminescence resonance energy transfer reports proximity on the nanometre scale.
T11 sequence (P23458 whole entry, canonical isoform): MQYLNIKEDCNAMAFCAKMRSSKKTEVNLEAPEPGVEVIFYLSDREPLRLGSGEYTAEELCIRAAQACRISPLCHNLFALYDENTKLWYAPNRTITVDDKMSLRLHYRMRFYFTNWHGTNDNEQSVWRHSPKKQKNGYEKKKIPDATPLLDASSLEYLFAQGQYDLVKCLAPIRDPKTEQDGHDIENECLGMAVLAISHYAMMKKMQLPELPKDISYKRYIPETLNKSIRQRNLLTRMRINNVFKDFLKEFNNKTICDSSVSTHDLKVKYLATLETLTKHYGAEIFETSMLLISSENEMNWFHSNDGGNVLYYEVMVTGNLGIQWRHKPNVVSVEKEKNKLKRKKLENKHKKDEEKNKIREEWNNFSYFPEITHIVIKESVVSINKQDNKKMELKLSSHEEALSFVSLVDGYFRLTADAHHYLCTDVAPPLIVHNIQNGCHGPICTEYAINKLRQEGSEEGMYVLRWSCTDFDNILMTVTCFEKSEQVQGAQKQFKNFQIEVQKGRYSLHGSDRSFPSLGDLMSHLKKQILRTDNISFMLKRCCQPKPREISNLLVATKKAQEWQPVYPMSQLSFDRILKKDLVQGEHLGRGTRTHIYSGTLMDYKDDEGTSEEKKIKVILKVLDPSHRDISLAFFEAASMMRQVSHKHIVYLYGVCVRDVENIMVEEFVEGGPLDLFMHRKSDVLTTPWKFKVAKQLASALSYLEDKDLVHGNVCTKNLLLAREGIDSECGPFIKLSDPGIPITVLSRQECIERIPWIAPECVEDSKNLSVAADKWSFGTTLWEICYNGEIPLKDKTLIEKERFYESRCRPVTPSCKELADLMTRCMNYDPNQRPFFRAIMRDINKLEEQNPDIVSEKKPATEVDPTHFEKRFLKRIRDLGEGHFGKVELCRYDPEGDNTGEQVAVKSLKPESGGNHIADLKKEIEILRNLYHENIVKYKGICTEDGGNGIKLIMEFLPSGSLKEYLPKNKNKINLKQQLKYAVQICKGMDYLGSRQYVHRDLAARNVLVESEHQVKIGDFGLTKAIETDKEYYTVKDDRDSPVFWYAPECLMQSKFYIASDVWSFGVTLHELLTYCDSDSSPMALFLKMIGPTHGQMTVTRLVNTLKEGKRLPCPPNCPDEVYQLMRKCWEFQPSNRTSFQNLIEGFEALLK
The target of test [32] is T8, Phosphatidylinositol 4,5-bisphosphate 3-kinase catalytic subunit alpha isoform. Description: Selectivity interaction (NanoBRET assay (HEK293T cells)) EUB0000312b PIK3CA.
For test [33], the target named is T10, Epithelial discoidin domain-containing receptor 1. Briefly: Selectivity interaction (NanoBRET assay (HEK293T cells)) EUB0000312b DDR1.
For test [34], the target named is T11, Tyrosine-protein kinase JAK1. Description: Selectivity interaction (KinomeScan (DiscoverX)) EUB0000312b JAK1@kinase 1. Conditions: at 1 µM.
Test [35] deals with T9, Calcium/calmodulin-dependent protein kinase type 1B. Briefly: Selectivity interaction (KinomeScan (DiscoverX)) EUB0000312b PNCK. The following applies: at 1 µM.

T8 sequence (P42336 whole entry, canonical isoform): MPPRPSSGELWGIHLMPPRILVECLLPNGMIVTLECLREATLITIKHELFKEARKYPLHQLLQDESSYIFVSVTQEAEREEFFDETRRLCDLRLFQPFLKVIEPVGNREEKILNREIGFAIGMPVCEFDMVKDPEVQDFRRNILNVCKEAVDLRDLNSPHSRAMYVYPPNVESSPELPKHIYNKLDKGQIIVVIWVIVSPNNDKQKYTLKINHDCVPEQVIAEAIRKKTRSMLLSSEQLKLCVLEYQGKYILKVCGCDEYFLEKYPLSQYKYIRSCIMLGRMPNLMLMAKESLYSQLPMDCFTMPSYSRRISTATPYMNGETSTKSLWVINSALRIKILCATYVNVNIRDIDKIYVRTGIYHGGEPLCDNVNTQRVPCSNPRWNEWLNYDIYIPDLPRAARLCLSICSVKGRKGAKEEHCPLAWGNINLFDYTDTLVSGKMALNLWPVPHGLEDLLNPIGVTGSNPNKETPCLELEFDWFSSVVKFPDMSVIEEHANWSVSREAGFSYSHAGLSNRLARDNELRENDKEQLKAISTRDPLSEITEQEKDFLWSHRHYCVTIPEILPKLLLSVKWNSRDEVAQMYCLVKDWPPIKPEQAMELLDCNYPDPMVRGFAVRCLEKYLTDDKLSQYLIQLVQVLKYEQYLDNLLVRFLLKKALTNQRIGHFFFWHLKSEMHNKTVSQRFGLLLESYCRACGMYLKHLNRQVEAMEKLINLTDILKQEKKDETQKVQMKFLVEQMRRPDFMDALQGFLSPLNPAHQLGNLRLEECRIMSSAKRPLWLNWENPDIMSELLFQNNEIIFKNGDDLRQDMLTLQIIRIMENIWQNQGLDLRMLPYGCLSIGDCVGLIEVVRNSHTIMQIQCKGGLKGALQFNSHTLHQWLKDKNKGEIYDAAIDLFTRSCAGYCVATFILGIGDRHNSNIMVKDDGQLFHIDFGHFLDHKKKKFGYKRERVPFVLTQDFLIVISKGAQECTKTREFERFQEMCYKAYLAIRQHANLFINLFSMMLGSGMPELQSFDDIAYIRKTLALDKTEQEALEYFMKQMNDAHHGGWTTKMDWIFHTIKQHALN
T10 sequence (Q08345 whole entry, the tested form may be a part): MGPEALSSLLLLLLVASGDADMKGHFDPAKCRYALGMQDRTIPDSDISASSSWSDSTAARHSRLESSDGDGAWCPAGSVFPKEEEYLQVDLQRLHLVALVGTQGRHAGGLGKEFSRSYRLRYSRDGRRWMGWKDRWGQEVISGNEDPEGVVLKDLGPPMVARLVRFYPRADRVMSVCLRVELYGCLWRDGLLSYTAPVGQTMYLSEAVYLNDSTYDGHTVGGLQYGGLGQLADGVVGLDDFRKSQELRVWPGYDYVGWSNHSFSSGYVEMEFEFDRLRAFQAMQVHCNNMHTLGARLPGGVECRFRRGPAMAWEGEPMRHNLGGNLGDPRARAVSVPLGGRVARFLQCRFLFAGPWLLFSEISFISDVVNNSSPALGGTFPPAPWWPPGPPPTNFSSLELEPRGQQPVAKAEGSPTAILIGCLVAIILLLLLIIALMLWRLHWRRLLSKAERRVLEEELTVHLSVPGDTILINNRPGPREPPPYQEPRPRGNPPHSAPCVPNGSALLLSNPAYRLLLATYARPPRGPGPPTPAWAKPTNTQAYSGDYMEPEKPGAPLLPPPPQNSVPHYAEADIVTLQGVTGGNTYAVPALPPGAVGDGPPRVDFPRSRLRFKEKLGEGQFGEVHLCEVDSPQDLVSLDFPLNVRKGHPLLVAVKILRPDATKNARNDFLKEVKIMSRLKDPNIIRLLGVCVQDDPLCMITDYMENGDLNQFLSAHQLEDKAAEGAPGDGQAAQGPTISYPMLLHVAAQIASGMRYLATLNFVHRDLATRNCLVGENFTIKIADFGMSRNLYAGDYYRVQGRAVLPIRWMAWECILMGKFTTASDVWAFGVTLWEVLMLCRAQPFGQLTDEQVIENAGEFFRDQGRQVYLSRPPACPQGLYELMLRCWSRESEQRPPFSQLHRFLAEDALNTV

In the case of `O=C(NCc1ccccc1)c1ccc(S(=O)(=O)NCc2ccccc2)cc1`, the % of control in [1] is 8.6%; in test [2] it was 0%; in test [4] it was 0%; in [5] it was 0%; in [7] it was 0%; in test [9], 0%. Moreover, the Kd in test [3], in [6], in test [8], in test [10], in test [11] and in [12] was greater than 10 µM in each case.

Turning to `COc1cc2c(NC3CCN(C(C)C)CC3)nc(N3CCC(F)(F)CC3)nc2cc1OCCCN1CCCC1`, the IC50 in test [13], in test [14], in [15], in test [16], in test [17] and in test [18] was greater than 10 µM throughout. The IC50 in test [19], in [20], in test [21], in test [22], in test [24] and in [25] was greater than 10 µM throughout. This compound also had an IC50 in [26] greater than 10 µM. Moreover, the Ki in [23] is greater than 10 µM.

As to `Cc1cnc(-c2cc(Cl)ccc2F)cc1-n1c(=O)n(CC(N)=O)c2cnccc21` [TP-008], the % of control stood at 33.9% in [27]; 39.6% in test [28]; 36.7% in test [30]; 38.6% in [34]; 39.5% in [35]. For the same compound, the IC50 in test [29], in test [31], in test [32] and in [33] was greater than 20 µM each time.

One may read the Kd as the constant that tells how readily two partners part at equilibrium. Usually IC50 stands for the concentration that inhibits the measured activity by half. By Ki is commonly meant a measure of affinity in units of concentration, obtained from inhibition or displacement. A lower Ki goes with tighter binding.
